Assay results published in ChEMBL document CHEMBL1128883, “Synthesis and bioassay of a protein tyrosine phosphatase inhibitor, dephostatin” (Bioorg Med Chem Lett, 1995).

Key:
[1] = target: T1, Tyrosine-protein phosphatase non-receptor type 1 (Homo sapiens) (UniProt P18031); assay: The rate constant for the inactivation of mammalian Protein-tyrosine phosphatase 1 (PTP1 ) was evaluated
T1 sequence (whole entry): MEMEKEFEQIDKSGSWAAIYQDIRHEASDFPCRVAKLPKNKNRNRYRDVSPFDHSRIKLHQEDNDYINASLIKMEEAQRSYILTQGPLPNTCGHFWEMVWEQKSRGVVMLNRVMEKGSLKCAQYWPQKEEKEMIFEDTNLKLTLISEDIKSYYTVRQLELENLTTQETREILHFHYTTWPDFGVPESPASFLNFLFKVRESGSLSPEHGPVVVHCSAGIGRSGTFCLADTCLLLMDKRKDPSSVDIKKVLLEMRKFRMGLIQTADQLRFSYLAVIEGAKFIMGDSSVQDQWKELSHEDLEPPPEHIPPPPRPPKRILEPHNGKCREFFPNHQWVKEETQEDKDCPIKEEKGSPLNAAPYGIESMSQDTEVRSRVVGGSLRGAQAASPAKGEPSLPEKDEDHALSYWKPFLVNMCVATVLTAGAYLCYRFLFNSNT

[2] = target: T1, Tyrosine-protein phosphatase non-receptor type 1 (Homo sapiens); assay: Apparent pseudo-first-order rate constant of inactivation of Protein Tyrosine Phosphatase (PTP) was determined; value given as 0.5-2.8
[3] = target: T1, Tyrosine-protein phosphatase non-receptor type 1 (Homo sapiens); assay: Apparent pseudo-first-order rate constant of inactivation of Protein Tyrosine Phosphatase (PTP) was determined; value given as 1-25

CN(N=O)c1cc(O)ccc1O
Rate constant [1]: 1.08 M⁻¹ s⁻¹ | Rate constant [2]: 0.5 mM

CN(N=O)c1ccccc1
Rate constant [1]: 0.0167 M⁻¹ s⁻¹ | Rate constant [3]: 1 mM
